Legend:
[1] = system: a variety of test species; experiment: Pre-emergence herbicidal activity (glasshouse, sprayed one day after sowing, evaluated after 13 days); assay type: in vivo; set-up: key: 5=total damage to plant; 0=no damage to plant; conditions: application pre-emergence, rate 1000 g/Ha, scale 0-5
Procedure: Seeds of a variety of test species were sown in standard soil in pots. After cultivation for one day (pre-emergence) under controlled conditions in a glasshouse (at 24/16° C., day/night; 14 hours light; 65% humidity), the plants were sprayed with an aqueous spray solution derived from the formulation of the technical active ingredient in acetone/water (50:50) solution containing 0.5% Tween 20 (polyoxyethelyene sorbitan monolaurate, CAS RN 9005-64-5). The test plants were then grown in a glasshouse under controlled conditions (at 24/16° C., day/night; 14 hours light; 65% humidity) and watered twice daily. After 13 days, the test was evaluated (5=total damage to plant; 0=no damage to plant).

[2] = system: a variety of test species; experiment: Post-emergence herbicidal activity (glasshouse, sprayed after 8 days cultivation, evaluated after 13 days); assay type: in vivo; set-up: key: 5=total damage to plant; 0=no damage to plant; conditions: rate 1000 g/Ha, scale 0-5
Procedure: Seeds of a variety of test species were sown in standard soil in pots. After 8 days cultivation (post-emergence) under controlled conditions in a glasshouse (at 24/16° C., day/night; 14 hours light; 65% humidity), the plants were sprayed with an aqueous spray solution derived from the formulation of the technical active ingredient in acetone/water (50:50) solution containing 0.5% Tween 20 (polyoxyethelyene sorbitan monolaurate, CAS RN 9005-64-5). The test plants were then grown in a glasshouse under controlled conditions (at 24/16° C., day/night; 14 hours light; 65% humidity) and watered twice daily. After 13 days, the test was evaluated (5=total damage to plant; 0=no damage to plant).

Structure (SMILES) | Pre-emergence herbicidal damage score, ABUTH [1] | Pre-emergence herbicidal damage score, ALOMY [1] | Pre-emergence herbicidal damage score, AMARE [1] | Pre-emergence herbicidal damage score, ECHCG [1] | Pre-emergence herbicidal damage score, SETFA [1] | Pre-emergence herbicidal damage score, ZEAMX [1] | ABUTH (Abutilon theophrasti) damage score, application post-emergence [2] | ALOMY (Alopecurus myosuroides) damage score, application post-emergence [2] | AMARE (Amaranthus retroflexus) damage score, application post-emergence [2] | ECHCG (Echinochloa crus-galli) damage score, application post-emergence [2] | SETFA (Setaria faberi) damage score, application post-emergence [2] | ZEAMX (Zea mays) damage score, application post-emergence [2]
COc1ccc(OC(=O)OC2C(C)=C(Cl)C(=O)N2c2cc(C(C)(C)C)on2)cc1 (stereo not drawn) [A86] | 3 | 3 | 5 | 2 | 2 | 1 | 2 | 3 | 5 | 2 | 3 | 0
COc1ccccc1OC(=O)OC1C(C)=C(Cl)C(=O)N1c1cc(C(C)(C)C)on1 (stereo not drawn) [A87] | 2 | 2 | 3 | 1 | 1 | 0 | 2 | 2 | 4 | 3 | 2 | 0
CC1=C(Cl)C(=O)N(c2cc(C(C)(C)C)on2)C1OC(=O)OCC(C)(C)C (stereo not drawn) [A88] | 5 | 4 | 5 | 5 | 5 | 3 | 5 | 5 | 5 | 5 | 5 | 5
CC1=C(Cl)C(=O)N(c2cc(C(C)(C)C)on2)C1OC(=O)c1ccc(C(F)(F)F)nc1 (stereo not drawn) [A90] | 4 | 2 | 5 | 1 | 2 | 1 | 4 | 4 | 5 | 2 | 3 | 1
CC1=C(Cl)C(=O)N(c2cc(C(C)(C)C)on2)C1OC(=O)c1sccc1Cl (stereo not drawn) [A91] | 1 | 2 | 4 | 0 | 0 | 0 | 2 | 2 | 5 | 1 | 1 | 0
CC1=C(Cl)C(=O)N(c2cc(C(C)(C)C)on2)C1OC(=O)c1ccno1 (stereo not drawn) [A92] | 5 | 4 | 5 | 5 | 4 | 3 | 5 | 5 | 5 | 5 | 5 | 1
CCC(=O)OC1C(C)=C(Cl)C(=O)N1c1cc(C(C)(C)C)on1 (stereo not drawn) [A93] | 5 | 4 | 5 | 4 | 5 | 3 | 5 | 5 | 5 | 5 | 5 | 4
CCOC(=O)OC1C(C)=C(Cl)C(=O)N1c1noc(C(C)(C)C)c1C#N (stereo not drawn) [A96] | 5 | 4 | 5 | 5 | 5 | 3 | 5 | 5 | 5 | 5 | 5 | 5
CC1=C(Cl)C(=O)N(c2noc(C(C)(C)C)c2C#N)C1Cl (stereo not drawn) [A97, 5-tert-butyl-3-(2A-dichloro-3-methyl-5-oxo-2H-pyrrol-1-yl)isoxazole-4-carbonitrile] | 5 | 4 | 5 | 4 | 5 | 3 | 5 | 5 | 5 | 5 | 5 | 3
CC1=C(Cl)C(=O)N(c2noc(C(C)(C)C)c2C#N)C1OS(C)(=O)=O (stereo not drawn) [A98] | 5 | 3 | 5 | 5 | 5 | 3 | 5 | 5 | 5 | 5 | 5 | 4
CCC(=O)OC1C(C)=C(Cl)C(=O)N1c1cc(C(C)(CC)CC#N)on1 (stereo not drawn) [A99] | 5 | 4 | 5 | 5 | 5 | 3 | 5 | 5 | 5 | 5 | 5 | 5

Source: US9936701B2, “Herbicidal compounds” (Syngenta Participations AG, priority 2013, dated 2018)
